We go through three compounds from patent US9187421B2, “Etomidate analogues that do not inhibit adrenocortical steroid synthesis” (THE GENERAL HOSPITAL CORPORATION, priority 2009, dated 2015).

“Also recorded” adds a separate entry of the source.

For series [1], the system named is rats. The series can be described thus: Rat hemodynamics (mean blood pressure). As to conditions: IV; for effect on mean blood pressure, comparison of three anesthetics (FIG. 7A): twice ED50 for LORR (8 mg/kg propofol, 2 mg/kg etomidate, 14 mg/kg carboetomidate); for effect on mean blood pressure relative to DMSO vehicle (FIG. 7B): 14 mg/kg carboetomidate, 2 mg/kg etomidate (2×ED50). On the procedure: Femoral arterial catheters, tunneled between the scapulas, were preimplanted by the vendor (Charles River Laboratories). Animals were fully recovered from the placement procedure on arrival.
On the day of study, after weighing and lateral tail vein IV catheter placement, rats were restrained in the acrylic tube with a tail exit port and allowed to acclimate for approximately 10 to 20 min before data collection. […] All data were acquired and analyzed using LabView Software (version 8.5 for Macintosh OS X; National Instruments).
Carboetomidate (40 mg/ml) dissolved in DMSO, etomidate (5.7 mg/ml) dissolved in DMSO, or DMSO vehicle alone as a control was administered through the tail vein catheter followed by approximately 1-ml normal saline flush.
The average mean blood pressure was calculated at each 30-second epoch during this study period.

The test system of series [2] is Xenopus laevis tadpoles. In words: Tadpole loss of righting reflex (LORR) assay. The series is classed as in vivo. As to the method:
Tadpoles: Groups of five early prelimb-bud stage Xenopus laevis tadpoles were placed in 100 ml of oxygenated water buffered with 2.5 mM Tris HCl buffer (pH. 7.4) and containing a concentration of carboetomidate ranging from 1 to 40[…]. Tadpoles were tipped manually every 5 min with a flame-polished pipette until the response stabilized. […] At the end of each study, tadpoles were returned to fresh water to ensure reversibility of hypnotic action. The EC50 for LORR was determined from the carboetomidate concentration dependence of LORR using the method of Waud D R, J Pharmacol Exp Ther (1972) 183: 577-607, content of which is herein incorporated by reference.
Tadpoles: The tadpole loss of righting reflex assay was used to test for anesthetic activity. Groups of 5 early prelimb-bud stage Xenopus laevis tadpoles were placed in 100 ml of oxygenated water buffered with 2.5 mM Tris HCl buffer (pH=7) and containing a concentration of carboetomidate ranging from 1-40 μM. See Scheme 1, above, for structure of Carboetomidate. Tadpoles were tipped manually every 5 min with a flame polished pipette. […] At all concentrations, this loss of righting reflex response stabilized within 30 min of carboetomidate exposure. At the end of each study, tadpoles were returned to fresh water to ensure reversibility of hypnotic action.

Series [3] relates to rats. The series can be described thus: Loss of righting reflex in rats after IV bolus. The class given is in vivo, Sprague-Dawley rats. As to conditions: for anesthetic toxicity in rats: highest doses; for slope of duration of anesthesia versus logarithm of anesthetic dose: time to spontaneous righting; for onset time for LORR / onset time for LORR, range: IV, equihypnotic doses 4×ED50 (28 mg/kg carboetomidate, 4 mg/kg etomidate); for time to LORR after IV bolus (in words): doses sufficient to produce LORR. On the procedure: Rats: Rats were briefly restrained in a 3-inch diameter, 9-inch long acrylic chamber with a tail exit port. The desired dose of carboetomidate in dimethyl sulfoxide (DMSO; typically at 40 mg/ml) was injected through a lateral tail vein catheter followed by an approximately 1-ml normal saline flush. After injection, rats were removed from the restraint device and turned supine. […] A stopwatch was used to measure the duration of LORR, which was defined as the time from carboetomidate injection until the animal spontaneously righted itself. The ED50 for LORR on bolus administration was determined from the dose dependence of LORR using the method of Waud.26 Onset time for LORR was determined separately by injecting rats with 28 mg/kg of carboetomidate (40 mg/ml in DMSO) or 4 mg/kg of etomidate (5.7 mg/ml in DMSO) through a lateral tail vein catheter followed by an approximately 1-ml normal saline flush. After injection, rats were immediately removed from the restraint device and repeatedly turned supine until they no longer spontaneously righted. The onset time was defined as the time from injection until LORR occurred.
Etomidate or carboetomidate was administered to Sprague Dawley rats as an IV bolus into their tail veins. […] LORR was defined as the time from drug injection until the animal spontaneously righted itself. The ED50 for LORR upon bolus anesthetic administration was determined from the anesthetic dose-dependence of LORR.

The target in series [4] is T1, human α1β2γ2L GABAA receptors (Homo sapiens, UniProt P14867+P47870).
T1 construct: expressed in transfected cells; host or cells: Xenopus laevis oocytes injected with mRNA (subunit ratio 1:1:2)
In words: GABAA receptor electrophysiology, wild-type receptors in Xenopus oocytes (two-electrode voltage clamp). The series is classed as cell-based. To be noted: 10 μM compound. As to the method: Adult female Xenopus laevis frogs were anesthetized with 0.2% tricaine (ethyl-m-aminobenzoate) and hypothermia. Ovary lobes were then excised through a small laparotomy incision and placed in OR-2 solution (82 mM NaCl, 2 mM KCl, 2 mM MgCl2, 5 mM HEPES, pH 7.5) containing collagenase 1A (1 mg/ml) for 3 h to separate oocytes from connective tissue.
Stage 4 and 5 oocytes were injected with messenger RNA encoding the α1, β2 (or β2M286W), and […] subunits of the human GABAA receptor (˜40 ng of messenger RNA total at a subunit ratio of 1:1:2). […]
All electrophysiologic recordings were performed using the whole cell two-electrode voltage-clamp technique. […] Current responses were recorded using Clampex 9.2 software (Axon Instruments) and processed using a Bessel (8-pole) low-pass filter with a cutoff at 50 Hz using Clampfit 9.2 software (Axon Instruments).
For each oocyte, the concentration of GABA that produces 5-10% of the maximal current response (EC5-10 GABA) was determined by measuring the peak current responses evoked by a range of GABA concentrations (in ND-96 buffer) and comparing them with the maximal peak current response evoked by 1 mM GABA. The effect of carboetomidate on EC5-10 GABA-evoked currents was then assessed by first perfusing the oocyte with EC5-10 GABA for 90 s and then measuring the control peak evoked current. […]

Series [5] has as its target T2, etomidate-insensitive mutant α1β2M286Wγ2L GABAA receptors (Homo sapiens, UniProt P14867+P47870, M310W).
T2 construct: expressed in transfected cells; host or cells: Xenopus laevis oocytes injected with mRNA (subunit ratio 1:1:2)
In words: GABAA receptor electrophysiology, etomidate-insensitive mutant receptors in Xenopus oocytes. The series is classed as cell-based. As to conditions: 10 μM compound.
Protocol: Stage 4 and 5 oocytes were injected with messenger RNA encoding the α1, β2 (or β2M286W), and γ21 subunits of the human GABAA receptor (˜40 ng of messenger RNA total at a subunit ratio of 1:1:2). This messenger RNA was transcribed from complementary DNA encoding for GABAA receptor α1, β2 (or β2M286W), and γ21 subunits using the mMESSAGE mMACHINE High Yield Capped RNA Transcription Kit (Ambion, Austin, Tex.). Injected oocytes were incubated in ND-96 buffer solution (96 mM NaCl, 2 mM KCl, 1 mM CaCl2, 0.8 mM MgCl2, 10 mM HEPES, pH 7.5) containing 50 U/ml of penicillin and 50 μg/ml of streptomycin at 17° C. for at least 18 h before electrophysiologic experiments.
For each oocyte, the concentration of GABA that produces 5-10% of the maximal current response (EC5-10 GABA) was determined by measuring the peak current responses evoked by a range of GABA concentrations (in ND-96 buffer) and comparing them with the maximal peak current response evoked by 1 mM GABA. […]

Series [6] concerns rats. The series can be described thus: Rat adrenocortical suppression (ACTH1-24-stimulated serum corticosterone). To be noted: IV bolus 2×ED50 (14 mg/kg carboetomidate, 2 mg/kg etomidate), 15 min after ACTH1-24.
Protocol: Immediately after weighing and IV catheter placement, dexamethasone (0.2 mg/kg IV; American Regent, Shirley, N.Y.) was administered to each rat to inhibit endogenous adrenocorticotropic hormone (ACTH) release, to suppress baseline corticosterone production, and to inhibit the variable stress response to restraint and handling. […] The concentrations of carboetomidate and etomidate in DMSO were 40 and 5.7 mg/ml, respectively. Immediately after hypnotic or vehicle administration, ACTH1-24 (25 μg/kg; Sigma-Aldrich Chemical Co, St. Louis, Mo.) was given intravenously to stimulate corticosterone production. Fifteen minutes later, a second blood sample was drawn to measure the ACTH1-24-stimulated serum corticosterone concentration. ACTH1-24 was dissolved in 1 mg/ml of deoxygenated water as stock, aliquoted, and frozen (−20° C.); a fresh aliquot was thawed just before each use. Rats in all three groups (carboetomidate, etomidate, and vehicle) received the same volume of DMSO (350 μl/kg).
Blood samples were allowed to clot at room temperature (10-60 min) before centrifugation at 3,500 g for 5 min. Serum was carefully expressed from any resulting superficial fibrin clot using a clean pipette tip before a second centrifugation at 3,500 g for 5 min. After the second centrifugation, the resultant clot-free serum layer was transferred to a fresh vial for a final, high-speed centrifugation (16,000 g, for 5 min) to pellet any contaminating red blood cells or particulates. The serum was transferred to a clean vial and promptly frozen (−20° C.) pending corticosterone measurement. After thawing and heat inactivation of corticosterone-binding globulins (65° C. for 20 min), serum baseline and ACTH1-24-stimulated corticosterone concentrations were quantified using an enzyme-linked immunosorbent assay (Diagnostic Systems Laboratories, Webster, Tex.) and a 96-well plate reader (Molecular Devices, Sunnyvale, Calif.).
Male Sprague Dawley rats were pre-treated with dexamethasone to inhibit endogenous ACTH production and minimize baseline serum corticosterone concentrations. […]
In series [7] the test system is Xenopus laevis tadpoles. As to conditions: literature (Husain et al. 2003); cited from earlier work.
Series [8] deals with T1, human α1β2γ2L GABAA receptors. To be noted: 4 μM etomidate, inventors' previous study; cited from earlier work.
Series [9] concerns humans. As to conditions: literature (Arden et al. 1986); cited from earlier work.
Series [10] concerns critically ill trauma patients. To be noted: critically ill trauma patients sedated with etomidate vs. benzodiazepines (28%); Watt and Ledingham 1984; cited from earlier work.

T1 sequence (P47870 25-512 limits assumed): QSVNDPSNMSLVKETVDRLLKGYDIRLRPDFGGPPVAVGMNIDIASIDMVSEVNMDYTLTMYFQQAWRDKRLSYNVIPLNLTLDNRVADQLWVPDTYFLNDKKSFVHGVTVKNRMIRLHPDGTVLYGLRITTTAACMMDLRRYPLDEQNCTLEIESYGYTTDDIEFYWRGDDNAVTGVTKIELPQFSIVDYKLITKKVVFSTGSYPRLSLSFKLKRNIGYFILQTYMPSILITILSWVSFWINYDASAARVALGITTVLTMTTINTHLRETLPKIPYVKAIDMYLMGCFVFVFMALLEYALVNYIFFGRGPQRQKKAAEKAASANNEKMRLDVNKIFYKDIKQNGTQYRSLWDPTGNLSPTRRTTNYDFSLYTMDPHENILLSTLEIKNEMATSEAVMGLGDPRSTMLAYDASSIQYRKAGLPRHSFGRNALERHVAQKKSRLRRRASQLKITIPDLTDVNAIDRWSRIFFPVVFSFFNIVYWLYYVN
T1 sequence (P14867 28-456): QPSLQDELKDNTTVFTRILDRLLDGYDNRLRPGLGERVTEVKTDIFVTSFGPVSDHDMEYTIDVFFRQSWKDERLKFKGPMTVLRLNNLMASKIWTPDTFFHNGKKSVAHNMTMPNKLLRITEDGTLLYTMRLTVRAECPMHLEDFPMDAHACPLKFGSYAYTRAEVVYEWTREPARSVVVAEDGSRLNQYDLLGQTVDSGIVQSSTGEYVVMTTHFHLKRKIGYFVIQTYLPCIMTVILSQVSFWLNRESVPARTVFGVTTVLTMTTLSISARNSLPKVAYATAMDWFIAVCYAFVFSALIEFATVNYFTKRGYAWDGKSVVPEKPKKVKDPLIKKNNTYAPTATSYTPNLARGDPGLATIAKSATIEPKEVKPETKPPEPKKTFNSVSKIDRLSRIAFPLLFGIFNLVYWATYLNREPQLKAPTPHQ
T1 sequence (P18507 40-475 partner): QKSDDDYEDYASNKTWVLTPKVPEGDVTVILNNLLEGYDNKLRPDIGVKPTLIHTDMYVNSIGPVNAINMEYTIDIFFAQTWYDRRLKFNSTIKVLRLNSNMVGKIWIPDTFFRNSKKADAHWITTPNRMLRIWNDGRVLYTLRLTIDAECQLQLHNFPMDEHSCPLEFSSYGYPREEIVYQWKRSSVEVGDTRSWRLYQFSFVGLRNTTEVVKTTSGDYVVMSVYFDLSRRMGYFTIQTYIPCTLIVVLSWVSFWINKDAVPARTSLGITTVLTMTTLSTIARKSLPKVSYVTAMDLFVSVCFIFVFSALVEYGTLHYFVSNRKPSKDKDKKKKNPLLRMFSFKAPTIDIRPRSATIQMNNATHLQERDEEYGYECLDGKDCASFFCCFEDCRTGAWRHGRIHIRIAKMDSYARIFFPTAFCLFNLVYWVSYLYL
T2 sequence (P47870 26-512 M310W): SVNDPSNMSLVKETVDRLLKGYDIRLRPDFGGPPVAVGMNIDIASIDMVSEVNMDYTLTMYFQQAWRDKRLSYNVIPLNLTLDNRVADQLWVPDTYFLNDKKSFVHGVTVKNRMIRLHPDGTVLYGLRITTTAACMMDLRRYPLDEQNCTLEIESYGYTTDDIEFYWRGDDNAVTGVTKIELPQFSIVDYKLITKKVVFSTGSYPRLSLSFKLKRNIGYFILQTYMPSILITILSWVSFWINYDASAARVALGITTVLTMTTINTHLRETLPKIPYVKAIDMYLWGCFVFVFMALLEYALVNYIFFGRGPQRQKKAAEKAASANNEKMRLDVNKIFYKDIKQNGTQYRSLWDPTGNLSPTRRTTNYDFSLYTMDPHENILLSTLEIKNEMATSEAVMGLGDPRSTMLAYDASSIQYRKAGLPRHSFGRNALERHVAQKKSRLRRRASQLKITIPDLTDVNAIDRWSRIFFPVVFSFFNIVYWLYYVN
T2 sequence (P14867 28-456): as the sequence (P14867 28-456) above
T2 sequence (P18507 40-475 partner): as the sequence (P18507 40-475 partner) above

In the case of `CC(C)c1cccc(C(C)C)c1O` [propofol, reference compound], the “effect on mean blood pressure, comparison of three anesthetics (FIG. 7A)” value (“effect on mean blood pressure … (FIG. 7A)” below) in series [1] is reported as “mean blood pressure decreased”.

For “(R)-1-(1-phenylethyl)-1H-pyrrole-2-carboxylate [carboetomidate]”, in series [2] (1-40 μM, recovery in fresh water), the toxicity in tadpoles result was “No evidence of toxicity was observed”. Further, in series [2] (LORR, Xenopus laevis tadpoles, quantal method of Waud, read-out: anesthetic EC50 (concentration at which 50% of tadpoles were anesthetized)), the EC50 was 5.4 ± 0.5 µM. Moreover, the “time for LORR response to stabilize” value in [2] (all concentrations (1-40 μM)) is recorded as at most 30 min. Further, the “fraction of tadpoles anesthetized” value in [2] (highest concentrations, 10-40 μM) is “all tadpoles were anesthetized”. Besides, in series [3] (IV bolus), the “anesthetic toxicity in rats” value is “no obvious anesthetic toxicity”. Also, in [3] (rats, IV bolus), the “ED50 for LORR following bolus administration” value came out at 7 ± 2 mg/kg and the “slope of duration of anesthesia versus logarithm of anesthetic dose” value is 16±4. In series [3] (rats), the “onset time for LORR” value is 33 ± 22 s; the “onset time for LORR, range” value was 10 to 63 s; the “time to LORR after IV bolus (in words)” value was “within several seconds”. The “enhancement of amplitudes of GABA-evoked currents” value in [4] (3 μM GABA, wild-type) was found to be 4 fold. The “enhancement (potentiation) of currents mediated by wild-type receptors” value in series [4] (EC5-10 GABA) is 390±80%. Besides, the “effect on amplitude of GABA-evoked currents” value in series [5] (0.3 μM GABA, mutant M286W) was “little effect”. Further, the “enhancement of currents mediated by etomidate-insensitive mutant receptors” value in series [5] (EC5-10 GABA) was −9±16%. For the same compound, in series [1], the “effect on mean blood pressure relative to DMSO vehicle (FIG. 7B)” value is listed as “not significantly greater than that of DMSO vehicle alone” and the “effect on mean blood pressure … (FIG. 7A)” value is on record as “magnitude of this decrease was less; also recorded: depresses blood pressure significantly less than propofol or etomidate”. Besides, the “ACTH1-24-stimulated serum corticosterone concentration versus vehicle (in words)” value in series [6] is “not different from those that had received only vehicle; also recorded: relatively unchanged versus vehicle”.

As for `CCOC(=O)c1cncn1C(C)c1ccccc1` (stereo not shown) [etomidate, ethyl 3-(1-phenylethyl)imidazole-4-carboxylate], in series [3] (Rattus norvegicus, rats, IV bolus, read-out: ED50 for LORR following bolus administration), the ED50 came to 1 ± 0.03 mg/kg. Besides, the “anesthetic toxicity in rats” value in [3] (IV bolus) is reported as “no obvious anesthetic toxicity”. The “slope of duration of anesthesia versus logarithm of anesthetic dose” value in [3] (rats, IV bolus) turned out to be 27±7. Moreover, in [3] (rats), the “onset time for LORR” value was found to be 4.5 ± 0.6 s; the “onset time for LORR, range” value was in the range of 4 to 5 s; the “time to LORR after IV bolus (in words)” value is listed as “within several seconds”. Also, in series [1], the “effect on mean blood pressure relative to DMSO vehicle (FIG. 7B)” value is “significantly reduced mean blood pressure relative to vehicle” and the “effect on mean blood pressure … (FIG. 7A)” value was “magnitude of this decrease was less”. In addition, the “concentration inducing loss of righting reflex in tadpoles” value in series [7] is about 2 µM. The “magnitude of potentiation of GABAA receptor currents” value in series [8] is reported as 660±240%. Further, the “concentration inducing loss of responsiveness in humans” value in [9] is about 2 µM. In series [10], the mortality is on record as 77%. Besides, in series [6], the “ACTH1-24-stimulated serum corticosterone concentration versus vehicle (in words)” value is on record as “significantly reduced”.
